According to article PMC9904262, “Omics analysis of Mycobacterium tuberculosis isolates uncovers Rv3094c, an ethionamide metabolism-associated gene” (Communications Biology, 2023):

B1: Rv3094c (enzyme)
chain: NQSETEIEILAEKIARWARARSAEIERDRRLPDELVTRLREAGLLRATMPREVAAPELAPGRALRCAEAVARGDASAGWCVSIAITSALLVAYLPARSREEMFGGGRGVAAGVWAPRGTARSVDGGVVVSGRWPFCSGINHADIMFAGCFVDDRQVPSVVALNKDELQVLDTWHTLGLRGTGSHDCVADDVFVPADRVFSVFDGPIVDRPLYRFPVFGFFALSIGAAALGNARAAIDDLVELAGGKKGLGSTRTLAERSATQAAAATAESALGAARALFYEVIEAAWQVSHDAEAVPVTMRNRLRLAATHAVRTSADVVRSMYDLAGGTAIYDNAPLQRRFRDAFTATAHFQVNEASRELPGRVLLDQPADVSML
notes: also called apo-Rv3094c; Rv3094c-FMN

Columns and labels:
EthA = biological target: T1, EthA (Mycobacterium tuberculosis, UniProt P9WNF9); format: cell-based; conditions: ethionamide 80 µg/ml (Methods), 37 °C, up to 6 h
T1 construct: N-terminal 6xHis tag kept (pET28a), expressed in intact E. coli BL21(DE3); not purified
T1 sequence (P9WNF9 whole entry): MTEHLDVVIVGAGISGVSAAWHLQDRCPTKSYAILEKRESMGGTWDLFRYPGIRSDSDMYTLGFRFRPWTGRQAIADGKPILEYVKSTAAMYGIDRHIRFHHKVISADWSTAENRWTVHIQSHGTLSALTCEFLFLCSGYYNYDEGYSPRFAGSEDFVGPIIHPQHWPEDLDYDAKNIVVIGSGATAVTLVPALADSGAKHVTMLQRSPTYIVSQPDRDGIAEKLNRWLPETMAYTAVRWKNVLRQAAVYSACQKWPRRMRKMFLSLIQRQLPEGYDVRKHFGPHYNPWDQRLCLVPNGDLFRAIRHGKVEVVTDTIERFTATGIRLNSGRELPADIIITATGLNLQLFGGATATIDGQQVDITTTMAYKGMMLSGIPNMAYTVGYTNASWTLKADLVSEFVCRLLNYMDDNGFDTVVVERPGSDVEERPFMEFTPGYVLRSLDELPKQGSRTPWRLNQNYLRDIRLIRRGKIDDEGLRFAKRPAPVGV

Rv3094c [1] = biological target: T2, Rv3094c (Mycobacterium tuberculosis, UniProt O05773)
T2 sequence (O05773 entry or part of it): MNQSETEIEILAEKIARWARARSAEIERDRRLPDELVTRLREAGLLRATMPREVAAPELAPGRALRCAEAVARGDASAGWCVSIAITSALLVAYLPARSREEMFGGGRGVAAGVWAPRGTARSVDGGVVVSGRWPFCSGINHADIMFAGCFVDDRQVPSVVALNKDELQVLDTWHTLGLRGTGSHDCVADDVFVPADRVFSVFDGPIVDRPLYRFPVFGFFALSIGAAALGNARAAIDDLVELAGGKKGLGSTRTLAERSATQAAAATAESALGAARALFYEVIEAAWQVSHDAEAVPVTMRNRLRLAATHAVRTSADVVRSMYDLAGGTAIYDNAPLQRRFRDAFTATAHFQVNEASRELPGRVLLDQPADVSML

Rv3094c [2] = biological target: T2, Rv3094c; remark: listed apart in the source
[3] = biological target: the molecule itself; assay: crystal structure; crystals of apo-Rv3094c, Rv3094c-FMN and Rv3094c-FMN-ETH; 0.2 M sodium nitrate, 0.1 M Bis Tris propane pH 8.5, 20% PEG3350, 16 °C; multimeric state analysed with PDBePISA

Row | Molecule | HPLC-UV of E. coli culture supernatant, LC-MS/MS (EthA) | HPLC-UV of E. coli culture supernatant, LC-MS/MS (Rv3094c [1]) | X-ray crystallography (Rv3094c [2]) | stoichiometry N [3]
1 | CCc1cc(C(N)=S=O)ccn1 [ETH-SO] | We synthesized an ETH-SO standard, and confirmed the new peak to be ETH-SO | We synthesized an ETH-SO standard, and confirmed the new peak to be ETH-SO | – | –
2 | CCc1cc(C(N)=S)ccn1 [ethionamide] | in supernatants from Rv3094c and ethA overexpression strains declined over time | Rv3094c must be a monooxygenase that can directly sulfoxidise ethionamide, forming ETH-SO | in complex with FMN (Rv3094c-FMN; Supplementary Fig. 4b) and ethionamide (Rv3094c-FMN-ETH | –
3 | Cc1cc2nc3c(=O)[nH]c(=O)nc-3n(C[C@H](O)[C@H](O)[C@H](O)COP(=O)(O)O)c2cc1C [flavin mononucleotide] | – | – | Rv3094c in complex with FMN (Rv3094c-FMN; Supplementary Fig. 4b) | –
4 | B1 | – | – | – | 4
